Drawing on ChEMBL document CHEMBL1123421, “Interaction of monoamine oxidase B with analogues of 1-methyl-4-phenyl-1,2,3,6-tetrahydropyridine derived from prodine-type analgesics” (J Med Chem, 1986), this text covers Specific activity (nM min-1 mg-1) and k' for four compounds.

Experiment [1] is filed under the species Homo sapiens. Kind of experiment: Compound was tested for inhibition of monoclonal antibody complex (MAO B - MAO B 1C2) from human autopsy liver expressed as specific activity.
The species entered for experiment [2] is Homo sapiens. Put plainly: Compound was tested for inactivation of monoclonal antibody complex (MAO B - MAO B 1C2) from human autopsy liver.
The species named for experiment [3] is Homo sapiens. Put plainly: Compound was tested for inactivation of monoclonal antibody complex Monoamine oxidase B from human autopsy liver.

Regarding `CC1=C(c2ccccc2)CCN(C)C1`, the Specific activity (nM min-1 mg-1) in the experiment filed under Homo sapiens [1] came to 5.3. The compound further registered a k' in the experiment filed under Homo sapiens [2] of 0 min⁻¹.

Regarding `C1=C(c2ccccc2)CCN(CCc2ccccc2)C1`, the Specific activity (nM min-1 mg-1) in the experiment listed under Homo sapiens [1] stood at 0. Moreover, the k' in the experiment listed under Homo sapiens [3] came to 0 min⁻¹.

The compound `CN1CC=C(c2ccccc2)CC1` returned a Specific activity (nM min-1 mg-1) in the experiment listed under Homo sapiens [1] of 85.2. The compound also yielded a k' in the experiment filed under Homo sapiens [2] of 0.0264 min⁻¹.

On to `CC1CN(C)CC=C1c1ccccc1` (stereo not drawn), for which the Specific activity (nM min-1 mg-1) in the experiment listed under Homo sapiens [1] is 11.4. This compound registered a k' in the experiment filed under Homo sapiens [2] of 0 min⁻¹.
